pEC50: −log10 of the molar value.

This test addresses T1, human TLR7 (Homo sapiens, UniProt Q9NYK1).
T1 construct: host or cells: HEK293 (HEK-Blue hTLR7)
T1 sequence (Q9NYK1 27-1049): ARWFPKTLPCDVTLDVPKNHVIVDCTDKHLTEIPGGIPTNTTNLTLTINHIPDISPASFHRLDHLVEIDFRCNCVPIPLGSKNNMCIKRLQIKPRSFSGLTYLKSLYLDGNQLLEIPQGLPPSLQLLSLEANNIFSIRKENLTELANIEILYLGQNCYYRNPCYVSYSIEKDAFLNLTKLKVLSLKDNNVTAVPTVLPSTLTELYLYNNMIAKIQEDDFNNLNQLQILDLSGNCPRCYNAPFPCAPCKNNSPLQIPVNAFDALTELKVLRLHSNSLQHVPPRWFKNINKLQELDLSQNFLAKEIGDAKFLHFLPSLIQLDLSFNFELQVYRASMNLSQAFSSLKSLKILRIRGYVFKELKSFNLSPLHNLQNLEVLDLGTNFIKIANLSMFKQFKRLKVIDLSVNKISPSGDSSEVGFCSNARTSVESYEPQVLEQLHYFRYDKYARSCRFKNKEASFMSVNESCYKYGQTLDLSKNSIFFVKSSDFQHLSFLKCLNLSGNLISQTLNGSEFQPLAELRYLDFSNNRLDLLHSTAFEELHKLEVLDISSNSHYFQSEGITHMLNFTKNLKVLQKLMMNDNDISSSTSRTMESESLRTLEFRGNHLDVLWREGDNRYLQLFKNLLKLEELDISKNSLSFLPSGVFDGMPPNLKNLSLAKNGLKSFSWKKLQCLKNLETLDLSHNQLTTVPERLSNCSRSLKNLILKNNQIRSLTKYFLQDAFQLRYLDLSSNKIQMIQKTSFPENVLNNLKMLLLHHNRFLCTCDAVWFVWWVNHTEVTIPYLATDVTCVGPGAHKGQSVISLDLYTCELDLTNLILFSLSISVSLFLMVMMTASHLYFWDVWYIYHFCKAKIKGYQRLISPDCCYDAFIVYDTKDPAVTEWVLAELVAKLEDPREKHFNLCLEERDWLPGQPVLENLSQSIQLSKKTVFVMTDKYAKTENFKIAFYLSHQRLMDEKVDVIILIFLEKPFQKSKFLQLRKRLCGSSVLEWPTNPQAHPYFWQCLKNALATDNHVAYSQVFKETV
Briefly: HEK293-Blue hTLR7 Reporter Assay (QUANTI-BLUE, SEAP readout). It counts as cell-based. As to conditions: HEK-Blue-hTLR7 cells, 24 hrs treatment, Table 1, B1-B232. Summed up: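 HEK-Blue-hTLR7 cells expressing NF-κB/AP-1-driven SEAP, 4×10^4 cells/well, treated 24 h at 37° C with increasing compound concentrations. Supernatant SEAP measured with Quanti-blue substrate (10-30 min, 37° C) at 620-655 nm; EC50 from sigmoidal dose-response fit.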
By pEC50 is commonly meant the EC50 on a negative log10 scale, so that one unit is a factor of ten. High values mean a small EC50, low ones a large EC50. Turning to `CCCCOc1nc(N)c2ncc(Cc3cnc(N4CCN(C(=O)CN(C)C(C)=O)CC4)c(C)c3)n2n1` [Compound B58, N-(2-(4-(5-((4-amino-2-butoxyimidazo[2,1-f][1,2,4]triazin-7-yl)methyl)-3-methylpyridin-2-yl)piperazin-1-yl)-2-oxoethyl)-N-methylacetamide], the pEC50 is 5.49.
Turning to `CCCCOc1nc(N)c2ncc(Cc3cnc(N4CCC(CN(C)C)CC4)c(C)c3)n2n1` [Compound B59, 2-butoxy-7-((6-(4-((dimethylamino)methyl)piperidin-1-yl)-5-methylpyridin-3-yl)methyl)imidazo[2,1-f][1,2,4]triazin-4-amine], the pEC50 is 7.70.
On to `CCCCOc1nc(N)c2ncc(Cc3cnc(N4CCC(N)CC4)c(C)c3)n2n1` [Compound B60, 7-((6-(4-aminopiperidin-1-yl)-5-methylpyridin-3-yl)methyl)-2-butoxyimidazo[2,1-f][1,2,4]triazin-4-amine], for which the pEC50 is 7.30.
The result for `CCCCOc1nc(N)c2ncc(Cc3ccc(N4CC(C)NC(C)C4)c(C)c3)n2n1` (centres unmarked) [Compound B61, 2-butoxy-7-(4-(3,5-dimethylpiperazin-1-yl)-3-methylbenzyl)imidazo[2,1-f][1,2,4]triazin-4-amine] reads 6.18; that for `COc1nc(N)c2ncc(Cc3cnc(N4CCNCC4)c(C)c3)n2n1` [Compound B62, 2-methoxy-7-((5-methyl-6-(piperazin-1-yl)pyridin-3-yl)methyl)imidazo[2,1-f][1,2,4]triazin-4-amine], less than 5.00.
With `CCOc1nc(N)c2ncc(Cc3cnc(N4CCNCC4)c(C)c3)n2n1` [Compound B63, 2-ethoxy-7-((5-methyl-6-(piperazin-1-yl)pyridin-3-yl)methyl)imidazo[2,1-f][1,2,4]triazin-4-amine], the pEC50 was 6.05.
On to `CCCCOc1nc(N)c2ncc(Cc3ccc(C4CCNCC4)c(C)c3)n2n1` [Compound B64, 2-butoxy-7-(3-methyl-4-(piperidin-4-yl)benzyl)imidazo[2,1-f][1,2,4]triazin-4-amine], for which the pEC50 was 6.35.
In turn, `CCCC(C)Oc1nc(N)c2ncc(Cc3cnc(N4CCNCC4)c(C)c3)n2n1` (centres unmarked) [Compound B65, 7-((5-methyl-6-(piperazin-1-yl)pyridin-3-yl)methyl)-2-(pentan-2-yloxy)imidazo[2,1-f][1,2,4]triazin-4-amine] had a pEC50 of 7.59.
Turning to `Cc1cc(Cc2cnc3c(N)nc(OC(C)C)nn23)cnc1N1CCNCC1` [Compound B66, 2-isopropoxy-7-((5-methyl-6-(piperazin-1-yl)pyridin-3-yl)methyl)imidazo[2,1-f][1,2,4]triazin-4-amine], the pEC50 was 6.84.
The result for `CCCCOc1nc(N)c2ncc(Cc3cnc(N4CCN(C(=O)[C@@H](N)[C@@H](C)CC)CC4)c(C)c3)n2n1` [Compound B67, (2S,3S)-2-amino-1-(4-(5-((4-amino-2-butoxyimidazo[2,1-f][1,2,4]triazin-7-yl)methyl)-3-methylpyridin-2-yl)piperazin-1-yl)-3-methylpentan-1-one] reads 6.47; that for `CCCCOc1nc(N)c2ncc(Cc3cnc(N4CCN(C(=O)[C@@H]5CCCN5)CC4)c(C)c3)n2n1` [Compound B68, (S)-4-amino-2-butoxy-7-((5-methyl-6-(4-prolylpiperazin-1-yl)pyridin-3-yl)methyl)imidazo[2,1-f][1,2,4]triazine], 6.97.
On to `CCCCOc1nc(N)c2ncc(Cc3cnc(N4CCN(C(=O)[C@@H](N)CC(C)C)CC4)c(C)c3)n2n1` [Compound B69, (S)-2-amino-1-(4-(5-((4-amino-2-butoxyimidazo[2,1-f][1,2,4]triazin-7-yl)methyl)-3-methylpyridin-2-yl)piperazin-1-yl)-4-methylpentan-1-one], for which the pEC50 is 6.50.
The result for `CCCCOc1nc(N)c2ncc(Cc3cnc(N4CCN(C(=O)[C@@H](N)C(C)C)CC4)c(C)c3)n2n1` [Compound B70, (S)-2-amino-1-(4-(5-((4-amino-2-butoxyimidazo[2,1-f][1,2,4]triazin-7-yl)methyl)-3-methylpyridin-2-yl)piperazin-1-yl)-3-methylbutan-1-one] reads 6.67; that for `CCCCNc1nc(N)c2ncc(Cc3cnc(N4CCN(C(=O)CN(C)C)CC4)c(C)c3)n2n1` [Compound B71, 1-(4-(5-((4-amino-2-(butylamino)imidazo[2,1-f][1,2,4]triazin-7-yl)methyl)-3-methylpyridin-2-yl)piperazin-1-yl)-2-(dimethylamino)ethan-1-one], 7.51; that for `CCCCOc1nc(N)c2ncc(Cc3cnc(N4CCN(CC(=O)N(C)C)CC4)c(C)c3)n2n1` [Compound B72, 2-(4-(5-((4-amino-2-butoxyimidazo[2,1-f][1,2,4]triazin-7-yl)methyl)-3-methylpyridin-2-yl)piperazin-1-yl)-N,N-dimethylacetamide], 6.31.
The molecule `CCCCOc1nc(N)c2ncc(Cc3cnc(N4CCNC[C@@H]4C)c(C)c3)n2n1` [Compound B73, (S)-2-butoxy-7-((5-methyl-6-(2-methylpiperazin-1-yl)pyridine-3-yl)methyl)imidazo[2,1-f][1,2,4]triazin-4-amine] had a pEC50 of 6.27.
The molecule `CCCCOc1nc(N)c2ncc(Cc3cnc(N4CCNC[C@H]4C)c(C)c3)n2n1` [Compound B74, (R)-2-butoxy-7-((5-methyl-6-(2-methylpiperazin-1-yl)pyridin-3-yl)methyl)imidazo[2,1-f][1,2,4]triazin-4-amine] had a pEC50 of 7.14.
In the case of `CCCCOc1nc(N)c2ncc(Cc3cnc(N4CCN(CCNC)CC4)c(C)c3)n2n1` [Compound B75, 2-butoxy-7-((5-methyl-6-(4-(2-(methylamino)ethyl)piperazin-1-yl)pyridin-3-yl)methyl)imidazo[2,1-f][1,2,4]triazin-4-amine], the pEC50 was 6.92.
Consider `CCCCOc1nc(N)c2ncc(Cc3cnc(N4CCN(CCN(C)C)CC4)c(C)c3)n2n1` [Compound B76, 2-butoxy-7-((6-(4-(2-(dimethylamino)ethyl)piperazin-1-yl)-5-methylpyridin-3-yl)methyl)imidazo[2,1-f][1,2,4]triazin-4-amine], for which the pEC50 was 7.03.
To `CCCCOc1nc(N)c2ncc(Cc3cnc(N4CCC(N(C)C)CC4)c(C)c3)n2n1` [Compound B78, 2-butoxy-7-((6-(4-(dimethylamino)piperidin-1-yl)-5-methylpyridin-3-yl)methyl)imidazo[2,1-f][1,2,4]triazin-4-amine] belongs 7.33; to `CCCCOc1nc(N)c2ncc(Cc3cnc(N4C[C@H]5C[C@@H]4CN5)c(C)c3)n2n1` [Compound B79, 7-((6-((1R,4R)-2,5-diazabicyclo[2.2.1]heptan-2-yl)-5-methylpyridin-3-yl)methyl)-2-butoxyimidazo[2,1-f][1,2,4]triazin-4-amine], 6.30.
The molecule `C=CCCOc1nc(N)c2ncc(Cc3cnc(N4CCNCC4)c(C)c3)n2n1` [Compound B80, 2-(but-3-en-1-yloxy)-7-((5-methyl-6-(piperazin-1-yl)pyridin-3-yl)methyl)imidazo[2,1-f][1,2,4]triazin-4-amine] showed a pEC50 of 6.62.
As for `CCCCOc1nc(N)c2ncc(Cc3cnc(N4CCN(C(=O)[C@@H](N)Cc5ccccc5)CC4)c(C)c3)n2n1` [Compound B81, (S)-2-amino-1-(4-(5-((4-amino-2-butoxyimidazo[2,1-f][1,2,4]triazin-7-yl)methyl)-3-methylpyridin-2-yl)piperazin-1-yl)-3-phenylpropan-1-one], the pEC50 is 5.35.
On to `CCCCOc1nc(N)c2ncc(Cc3cnc(N4CCC5(CCNC5)CC4)c(C)c3)n2n1` [Compound B82, 2-butoxy-7-((5-methyl-6-(2,8-diazaspiro[4.5]decan-8-yl)pyridin-3-yl)methyl)imidazo[2,1-f][1,2,4]triazin-4-amine], for which the pEC50 was 6.37.
To `CCCCOc1nc(N)c2ncc(Cc3cnc(N4CCC5(CCCC5)CC4)c(C)c3)n2n1` [Compound B83, 2-butoxy-7-((5-methyl-6-(8-azaspiro[4.5]decan-8-yl)pyridin-3-yl)methyl)imidazo[2,1-f][1,2,4]triazin-4-amine] belongs less than 5.00.
`Cc1cc(Cc2cnc3c(N)nc(NCCC(C)C)nn23)cnc1N1CCNCC1` [Compound B85, N^2-isopentyl-7-((5-methyl-6-(piperazin-1-yl)pyridin-3-yl)methyl)imidazo[2,1-f][1,2,4]triazine-2,4-diamine] had a pEC50 of 5.87.

The record behind these values is US12612407B2, “Imidazo[2,1-f][1,2,4]triazin-4-amine derivatives as TLR7 agonist” (BEIGENE, LTD., priority 2020, dated 2026).
